Reference: patent US20030211075A1 (priority 2001, published 2003)

Key:
immobilized tTF = molecular target: T1, immobilized tTF (Homo sapiens, UniProt P13726); experiment: Real time binding of tTF to immobilized tTF (surface plasmon resonance); details: tTF 30 μg/ml alone or preincubated with endotoxin or factor VIIa
T1 construct: amino acid 1-219 of the mature protein; made in house; host or cells: E. coli

[1] = test system: L540 human Hodgkin's tumors; experiment: Anti-VCAM-1•tTF coaguligand in L540 tumor-bearing mice; assay type: in vivo, mouse
Description: Before coaguligand injection, tumors were viable, having a uniform morphology lacking regions of necrosis. […] Within four hours of coaguligand injection, 40-70% of blood vessels were thrombosed, despite the initial staining of only 20-30% of tumor blood vessels. The thrombosed vessels contained occlusive platelet aggregates, packed erythrocytes and fibrin. In several regions, the blood vessels had ruptured, spilling erythrocytes into the tumor interstitium.
The drug was administered i.v. 3 times at intervals of 4 days.

TNFα = TNFα serum levels in treated animals; assay type: in vivo, mouse; details: tTF containing no endotoxin (n=6), 1, 2 and 24 hours
Description: Mice were closely observed after treatment for clinical signs of toxicity and clinical status was documented at defined time points (5 minutes, 10 minutes, 15 minutes, 30 minutes. 1 hour. 2 hours, 24 hours, 48 hours, 72 hours). Blood samples were taken from the tail vein at 1 hour, 2 hours and 24 hours to measure TNFα blood levels. Three days after treatment, the mice were anesthetized, blood samples were taken from the vena cava for coagulation tests, and an autopsy was performed to document any changes in gross pathology. Tumors, lymph node metastases and the major normal organs (heart, lung, brain, liver, kidney, colon, spleen, pancreas) were harvested and prepared for histological analysis.
TNFα levels in serum were determined using the Quantikine-M kit (R&D Systems, Minneapolis, Minn.) according to the manufacturer's instructions.

T1 sequence (P13726 33-251): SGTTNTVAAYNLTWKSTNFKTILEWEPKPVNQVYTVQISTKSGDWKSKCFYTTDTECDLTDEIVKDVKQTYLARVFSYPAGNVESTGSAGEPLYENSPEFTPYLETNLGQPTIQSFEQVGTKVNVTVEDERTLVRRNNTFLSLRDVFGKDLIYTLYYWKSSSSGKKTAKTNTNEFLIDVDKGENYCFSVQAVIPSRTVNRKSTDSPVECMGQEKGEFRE

“tTF: extracellular domain of the mature Tissue Factor protein (amino acid 1-219), recombinant truncated human Tissue Factor” was tested, and the “binding to immobilized tTF” value (immobilized tTF) was “did not bind to or homodimerize with immobilized tTF”, the “control reagents that caused thrombosis” value ([1]; equivalent quantities) was “None” and the “effect on tumor growth” value ([1]; i.v. 3 times at intervals of 4 days) was “did not affect tumor growth”. For the same substance, the TNFα serum level (TNFα) was “could not be detected”.
